Patent publication US10053459B2, “Life-extending agent, life extension method using the life-extending agent, novel dual oxidase activator, method for activating dual oxidase, production of life-extending agent, and production of dual oxidase activator” (National University Corporation Nagoya University, priority 2014, dated 2018)
Counter-ions that a name gives are not always drawn.

Experiments:
[1] = Stability of test substance in the petri dishes used in the life test (LC analysis); format: physicochemical; conditions: for Main impurities / Test substance (%): in petri dish medium used in the life test
Protocol: The analysis of PQQ sodium salt was conducted under analysis conditions given below. PQQ concentration and purity were measured by high-performance liquid chromatography under conditions shown below.
Apparatus: high-performance liquid chromatography, LC-2010 manufactured by Shimadzu Corp.
Column: YMC-Pack ODS-A, 150×4.6 mm I.D.
Measurement temperature: 40° C.
Detection: absorbance at 259 nm
Eluent: 30 mM acetic acid/70 mM ammonium acetate (pH 5.1)
The reduced pyrroloquinoline quinone, the acetone adduct of pyrroloquinoline quinone, and the IPQ trisodium salt in the petri dishes used in the life test were evaluated for their stability by liquid chromatography analysis (LC analysis). The liquid chromatography analysis can be conducted according to those described above.

[2] = Stability of reduced PQQ in agar medium, preservation test (LC and UV spectrum analysis); format: physicochemical; conditions: 30° C. for 3 days
Protocol: Ultraviolet-visible spectra were measured using a UV spectrometer UV1800 manufactured by Shimadzu Corp.
Reduced PQQ was added to sterile water to prepare a 30 mM dispersion. This dispersion was added so as to make 5 mM in the composition for evaluation described above to prepare a petri dish. The preservation test was conducted at 30° C. for 3 days, followed by LC analysis and UV spectrum analysis. The reduced formed is converted to PQQ under neutral conditions. Therefore, the reduced state can be confirmed by detecting PQQ by the LC analysis and measuring the UV spectrum of a solution thereof in dimethyl sulfoxide. As a result of confirming the state of the reduced PQQ in an agar medium in this way, 86% of all PQQs maintained the reduced state.

[3] = tested on: nematode C. elegans, wild-type; test: Life test (life assay) of nematode on medium containing the test substance; format: in vivo; conditions: for average life / life-extending effect: 5.0 mM in medium vs 0 mM, FIGS. 3 and 4
Protocol: Pyrroloquinoline quinone disodium salt was mixed with water and sodium hydroxide to obtain test sample concentrate 1 of pH 6. The content of the pyrroloquinoline quinone disodium salt in the test sample concentrate 1 was adjusted to 30 mM. The test sample concentrate 1 was autoclave-sterilized for use. […] Meanwhile, to each E. coli solution cultured in an LB medium (Luria-Bertani broth), the test sample concentrate 1 was added so as to attain the same concentration as that of the pyrroloquinoline quinone disodium salt in the medium of each of the prepared petri dishes. 100 μL of the obtained E. coli solution was seeded in a circular pattern of approximately 2 cm in diameter to the center of each petri dish. […] The petri dish was wrapped in Parafilm during storage. […] These individuals were excluded from the data. […] Petri dishes having media containing different concentrations of the acetone adduct were prepared by the same operation as in Example 1 except that the amount of the test sample concentrate 2 added was adjusted such that the concentration of the acetone adduct in each medium solution was 0 mM (Comparative Example 2) and 5.0 mM (Example 5). […] Petri dishes having media containing different concentrations of the IPQ trisodium salt were prepared by the same operation as in Example 1 except that the amount of the test sample concentrate 3 added was adjusted such that the concentration of the IPQ trisodium salt in each medium solution was 0 mM (Comparative Example 3) and 5.0 mM (Comparative Example 4).

[4] = tested on: nematode variant nsy-1 (ky400)
Protocol: (§1) 7.2 g of NaCl, 48 g of agar, 6 g of Bactopeptone (manufactured by Becton, Dickinson and Company), and water (2.4 L including the amount of the sample concentrate to be added) were added into each flask. The flask was autoclaved at 120° C. for 20 minutes or longer and then cooled until the surface temperature of the flask became approximately 45° C. To this flask, 60 mL of a 1 M potassium phosphate solution, 2.4 mL of a 1 M CaCl2 solution, 2.4 mL of a 1 M MgSO4 solution, 2.4 mL of a 750 mg/150 mL cholesterol solution, and a predetermined amount of the 30 mM test sample concentrate 1 were added to obtain a medium solution. The amount of the test sample concentrate 1 added was adjusted such that the concentration of the pyrroloquinoline quinone disodium salt in the medium solution was 0 mM (Comparative Example 1), 0.1 mM (Example 1), 1.0 mM (Example 2), 3.0 mM (Example 3), and 5.0 mM (Example 4). The flask was further cooled until the surface temperature of the flask reached 40 to 41° C. 14 mL of the medium solution was added to each polystyrene petri dish having a diameter of 6 cm and cooled to room temperature to prepare petri dishes having media containing different concentrations of the pyrroloquinoline quinone disodium salt.
(§2) In order to synchronize the ages of nematode individuals at the start of the experiment, parent nematodes were allowed to lay eggs and then removed, and individuals evenly grown for a given period of time after hatching were used. Specifically, five adults (individuals under incubation) were selected and transferred to each petri dish, which was then left at 20° C. for 2 hours (lay period), and the parent nematodes were removed. Then, the petri dish was left at 20° C. for 72 hours. The life test was started when the number of individuals per petri dish reached 10 to 20.
(§3) Grown-up individuals were used in the life assay.
(§4) The individuals in each petri dish were transferred to a fresh petri dish every day. Information on date, the number of survivors, the number of deaths, the number of missing individuals, etc., was recorded in a score sheet. The petri dish was wrapped in Parafilm during storage. An individual was judged as being dead when no spontaneous behavior was seen and no response was found even by vibration stimulus or contact stimulus. Nematodes are often missing because of running out of the petri dish, being dried at the wall, crawling out from a gap in the medium, for example. Therefore, the number of missing individuals was recorded and excluded from the data. Individuals that died of the eclosion of their children in their bodies, which occurs frequently in certain variants, were recorded as BAG, and individuals that died of hernia were recorded as rupture.
(§5) Nematode variants can be used to determine how PQQ works. A plurality of petri dishes were prepared using the medium containing 5 mM PQQ prepared in Example 4. The life extension test was conducted in the same way as in Example 1 using the prepared petri dishes and each variant shown in Table 2. The results obtained without the addition of PQQ are indicated as 100 for a relative effect.

[5] = tested on: nematode variant pmk-3 (ok-169)
Protocol: as §1, §2, §3, §4, §5

[6] = tested on: nematode variant bli-3 (e767), reduced activity of dual oxidase
Protocol: as §1, §2, §3, §4, §5

[7] = tested on: nematode variant age-1 (hx546)
Protocol: as §1, §2, §3, §4, §5

[8] = tested on: nematode variant daf-2 (e1370)
Protocol: as §1, §2, §3, §4, §5

[9] = tested on: nematode variant bli-3 (im-10), reduced activity of dual oxidase
Protocol: as §1, §2, §3, §4, §5

[10] = tested on: nematode variant skn-1 (zu67)
Protocol: as §1, §2, §3, §4, §5

[11] = tested on: nematode line OB265bli-3 (e767); imEx144[bli-3genomic clone]; test: Life test using line OB265 bli-3 (e767); imEx144[bli-3genomic clone]; format: in vivo, C. elegans
Text: as §3
(§6) The petri dish was wrapped in Parafilm during storage. […] These individuals were excluded from the data.

[12] = tested on: nematode variant gas-1 (fc2); test: Life test using variant gas-1 (fc2); format: in vivo, C. elegans
Text: as §3, §6

[13] = 5 mM PQQ, result without PQQ = 100

Which Main impurities [1] does the source give for `O=C(O)c1cc(C(=O)O)c2c(n1)c(O)c(O)c1cc(C(=O)O)[nH]c12` [Reduced pyrroloquinoline quinone, reduced pyrroloquinoline quinone] here?
The Main impurities was “IPQ”.

And the “Test substance (%)” value [1]?
Its value is “Reduced pyrroloquinoline quinone 65%”.

And the Main impurities ([2]; 5 mM in agar medium petri dish)?
The Main impurities was “PQQ”.

What about the “Test substance (%)” value ([2]; 5 mM in agar medium petri dish, LC and UV analysis) of the same molecule?
The value was “Reduced pyrroloquinoline quinone 85%”.

And the “share of all PQQs that maintained the reduced state” value ([2]; 5 mM in agar medium, LC and UV spectrum analysis)?
Its value is 86%.

What does the source list for `O=C(O)c1cc2c(=O)c3ncn4c(C(=O)O)cc(C(=O)O)c(c2[nH]1)c34` [IPQ, trisodium salt of imidazoloquinone, reference compound]?
Test substance (%) [1]: IPQ100%; average life / life-extending effect [3]: small life-extending effect

Which Main impurities [1] does the source give for `CC(=O)CC1(O)C(=O)c2cc(C(=O)O)[nH]c2-c2c(C(=O)O)cc(C(=O)O)nc21` (stereo not drawn) [acetone adduct of pyrroloquinoline quinone] here?
The Main impurities was “PQQ”.

And the “Test substance (%)” value [1]?
Its value is 92%.

And the “detection of IPQ (formed by reaction with amino acids of the medium)” value ([1]; petri dish medium with peptone)?
The value was “not detected”.

And the “average life / life-extending effect” value [3]?
Its value is “tends to extend the average life”.

Which results are given for `O=C(O)c1cc(C(=O)O)c2c(n1)C(=O)C(=O)c1cc(C(=O)O)[nH]c1-2` [PQQ, Pyrroloquinoline quinone disodium salt]?
Average life after becoming adult ([4]; nsy-1 (ky400), 5 mM PQQ in medium): 16.0 ± 0.3 days; Relative value ([4]; nsy-1 (ky400), 5 mM PQQ, result without PQQ = 100): 104; life-extending effect (in words) ([4]; nsy-1 variant, 5 mM PQQ): strongly suppressed; Average life after becoming adult ([5]; pmk-3 (ok-169), 5 mM PQQ in medium): 17.9 ± 0.4 days; Relative value ([5]; pmk-3 (ok-169), 5 mM PQQ, result without PQQ = 100): 90; life-extending effect (in words) ([5]; pmk-3 variant, 5 mM PQQ): strongly suppressed; Average life after becoming adult ([6]; 5 mM PQQ in medium): 13.5 ± 0.4 days; Relative value [6, 13]: 87; Average life after becoming adult ([7]; 5 mM PQQ in medium): 23.4 ± 0.9 days; Relative value [7, 13]: 123; Average life after becoming adult ([8]; 5 mM PQQ in medium): 34.6 ± 0.9 days; Relative value [8, 13]: 121; Average life after becoming adult ([9]; 5 mM PQQ in medium): 11.7 ± 0.4 days; Relative value [9, 13]: 99; Average life after becoming adult ([10]; skn-1 (zu67), 5 mM PQQ in medium): 12.8 ± 0.2 days; Relative value ([10]; skn-1 (zu67), 5 mM PQQ, result without PQQ = 100): 96; life-extending effect (in words) ([10]; skn-1 gene variant, 5 mM PQQ): strongly suppressed; Average life after becoming adult ([11]; OB265bli-3 (e767), imEx144[bli-3genomic clone], 5 mM PQQ in medium): 19.8 ± 0.3 days; Relative value ([11]; OB265bli-3 (e767), imEx144[bli-3genomic clone], 5 mM PQQ, result without PQQ = 100): 122; life-extending effect (in words) ([11]; bli-3 gene-deficient line transfected with the bli-3 gene, Example 15, 5 mM PQQ): extended; average life (survival rate vs rearing days after becoming adults) ([3]; 0.1, 1.0, 3.0, 5.0 mM in medium vs 0 mM, FIGS. 1 and 2): tends to extend the average life; Average life after becoming adult ([3]; wild-type, 5 mM PQQ in medium): 15.0 ± 0.6 days; Relative value ([3]; wild-type, 5 mM PQQ, result without PQQ = 100): 140; Average life after becoming adult ([12]; 5 mM PQQ in medium): 14.7 ± 0.9 days; Relative value [12, 13]: 111
